Measured values as given in BindingDB's records for doi:10.1016/j.bioorg.2017.01.016 (CSIR-Indian Institute of Chemical Biology, 2017).
Substitutions are numbered along the chain they refer to.

Key:
[1] = molecular target: T1, Seed linoleate 13S-lipoxygenase-1 (Glycine max, UniProt P08170); experiment: In Vitro Soybean Lipoxygenase (SLO) Inhibition Assay; settings: pH 8
T1 sequence (P08170 whole entry): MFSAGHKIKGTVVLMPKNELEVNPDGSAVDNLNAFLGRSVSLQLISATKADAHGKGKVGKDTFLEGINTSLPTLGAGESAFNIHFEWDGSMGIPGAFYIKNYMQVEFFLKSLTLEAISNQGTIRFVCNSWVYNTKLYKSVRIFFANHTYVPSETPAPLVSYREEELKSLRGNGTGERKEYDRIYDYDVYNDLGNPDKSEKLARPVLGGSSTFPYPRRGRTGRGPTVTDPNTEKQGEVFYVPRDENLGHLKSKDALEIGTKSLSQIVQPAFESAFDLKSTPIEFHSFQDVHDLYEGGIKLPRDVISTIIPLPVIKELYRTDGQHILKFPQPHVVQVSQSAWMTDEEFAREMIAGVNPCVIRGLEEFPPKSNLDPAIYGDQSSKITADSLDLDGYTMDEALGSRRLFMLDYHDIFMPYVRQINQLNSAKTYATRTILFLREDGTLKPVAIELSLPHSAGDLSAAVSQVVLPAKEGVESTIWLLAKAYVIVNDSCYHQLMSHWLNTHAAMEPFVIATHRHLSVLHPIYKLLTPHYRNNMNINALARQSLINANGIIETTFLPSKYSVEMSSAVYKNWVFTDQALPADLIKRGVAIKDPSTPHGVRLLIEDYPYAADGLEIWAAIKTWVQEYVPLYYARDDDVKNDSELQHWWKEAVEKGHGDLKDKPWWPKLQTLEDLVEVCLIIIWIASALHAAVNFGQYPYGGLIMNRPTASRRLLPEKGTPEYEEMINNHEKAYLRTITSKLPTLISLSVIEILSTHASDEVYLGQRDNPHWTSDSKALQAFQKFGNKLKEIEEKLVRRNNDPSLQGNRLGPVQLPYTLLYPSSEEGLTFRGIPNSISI
Excerpt: Following are the compositions of the blank, control and sample.

Lipoxygenase = molecular target: T2, Lipoxygenase (Soybean, UniProt B3TDK4); experiment: Molecular Docking
T2 sequence (B3TDK4 whole entry): T1 sequence (P08170 whole entry) with S160E
Method: The crystal structure of soybean lipoxygenase-1 (PDB code: 3PZW), was used in our docking experiments. The 3D structure of 3PZW was reported by Chruszcz et al. [Chruszcz et al., Biophys. J., 95(1):1-9] using X-ray diffraction technique with a resolution of […] . The docking of ligands to the catalytic site of soybean lipoxygenase was performed using AutoDock 4.0 software (http://autodock.scripps.edu/).

Structure (SMILES)	IC50 [1] [µM]	Ki (Lipoxygenase) [µM]
CCOC(=O)c1c(C)oc(-c2ccccc2)c1CC(=O)c1ccccc1 [2-Methyl-4-(2-oxo-2-phenyl-ethyl)-5-phenyl-furan-3-carboxylic acid ethyl ester (3b)]	287	0.868
COC(=O)c1c(C)oc(-c2ccccc2)c1CC(=O)c1ccccc1 [2-Methyl-4-(2-oxo-2-phenyl-ethyl)-5-phenyl-furan-3-carboxylic acid methyl ester (3a)]	78.5	0.662
COC(=O)c1c(C)oc(-c2ccc(C)c(Cl)c2)c1CC(=O)c1ccc(C)c(Cl)c1 [5-(3-Chloro-4-methyl-phenyl)-4-[2-(3-chloro-4-methyl-phenyl)-2-oxo-ethyl)-2-methyl-furan-3-carboxylic acid methyl ester (3i)]	47.5	0.357
COC(=O)c1c(C)oc(-c2ccc(Cl)cc2)c1CC(=O)c1ccc(Cl)cc1 [5-(4-Chloro-phenyl)-4[2-(4-chloro-phenyl)-2-oxo-ethyl]-2-methyl-furan-3-carboxylic acid methyl ester (3g)]	32.5	0.313
CC(Cc1ccc(O)c(O)c1)C(C)Cc1ccc(O)c(O)c1 (centres undefined) [LOX inhibitor, N/A]	–	0.232
COC(=O)c1c(C)oc(-c2ccc(C)cc2)c1CC(=O)c1ccc(C)cc1 [Methyl 2-methyl-5-(4-methylphenyl)-4-[2-(4-methylphenyl)-2-oxoethyl]furan-3-carboxylate (3c)]	22.1	0.178

The next lines start with the values.

IC50 [1] [µM]	Ki (Lipoxygenase) [µM]	Structure (SMILES)
22.6	0.246	CCOC(=O)c1c(C)oc(-c2ccc(C)cc2)c1CC(=O)c1ccc(C)cc1 [2-Methyl-4-(2-oxo-2-p-tolyl-ethyl)-5-p-tolyl-furan-3-carboxylic acid ethyl ester (3d)]
21.2	0.141	CCOC(=O)c1c(C)oc(-c2ccc(Br)cc2)c1CC(=O)c1ccc(Br)cc1 [5-(4-Bromo-phenyl)-4[2-(4-bromo-phenyl)-2-oxo-ethyl]-2-methyl-furan-3-carboxylic acid ethyl ester (3f)]
12.8	0.0709	COC(=O)c1c(C)oc(-c2ccc(Br)cc2)c1CC(=O)c1ccc(Br)cc1 [5-(4-Bromo-phenyl)-4[2-(4-bromo-phenyl)-2-oxo-ethyl]-2-methyl-furan-3-carboxylic acid methyl ester (3e)]
32	0.345	CCOC(=O)c1c(C)oc(-c2ccc(Cl)cc2)c1CC(=O)c1ccc(Cl)cc1 [5-(4-Chloro-phenyl)-4[2-(4-chloro-phenyl)-2-oxo-ethyl]-2-methyl-furan-3-carboxylic acid ethyl ester (3h)]
